Measured values from PMC6347282, “Neutrophil elastase-cleaved corticosteroid-binding globulin is absent in human plasma” (The Journal of Endocrinology, 2018).

Target: T1, human corticosteroid-binding globulin (CBG; SERPINA6) (Homo sapiens, UniProt P08185)
T1 construct: RCL intact; no tag
T1 sequence (P08185 23-405): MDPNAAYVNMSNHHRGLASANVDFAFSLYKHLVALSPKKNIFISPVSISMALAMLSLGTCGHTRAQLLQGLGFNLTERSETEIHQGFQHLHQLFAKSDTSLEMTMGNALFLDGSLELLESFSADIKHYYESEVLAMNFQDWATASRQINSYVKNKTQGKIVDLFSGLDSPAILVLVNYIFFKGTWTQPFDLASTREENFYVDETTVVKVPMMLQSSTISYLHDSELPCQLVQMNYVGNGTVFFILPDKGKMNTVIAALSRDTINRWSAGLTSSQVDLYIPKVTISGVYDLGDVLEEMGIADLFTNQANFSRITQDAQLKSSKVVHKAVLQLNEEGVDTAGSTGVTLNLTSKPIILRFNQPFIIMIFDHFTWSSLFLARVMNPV
Assay: [3H]-corticosterone saturation binding, Scatchard analysis
Details: labelled compound; steroid-affinity purified plasma CBG, before 9G12 immunoprecipitation, ELISA-discordant sample; unreliable: unit doubtful, see left_out

Kd: 1.72 nM
SMILES: C[C@]12C[C@H](O)[C@H]3[C@@H](CCC4=CC(=O)CC[C@@]43C)[C@@H]1CC[C@@H]2C(=O)CO [corticosterone]
